Assay results from patent US20240148820A1 (priority 2021, published 2024).
Where no end group is shown, it is not given here.

Biological target: S protein of SARS-CoV-2 (Severe acute respiratory syndrome coronavirus 2, UniProt P0DTC2)
Type: binding

## IPLRGAFINGRWDSQCHRFS [U5]
  effect of U5 on P9R binding to S protein: not P9R binding to S protein
